Here are results for one compound from patent publication US20200290950A1, “ALKAMIDE COMPOUNDS AND USES THEREOF” (NORTH CAROLINA STATE UNIVERSITY, priority 2017, published 2020).

Assay [1] concerns RBL-2H3 cells. The assay can be described thus: Fluo-4 calcium assay, RBL-2H3 cells (Example 1). In kind it is cell-based, rat. As for the experimental part: FIGS. 3A-3H. A15 inhibits calcium influx in RBL-2H3 cells and BMMCs. RBL-2H3 cells (FIGS. 3A-3D) and BMMCs (FIGS. 3E-3H) were plated and incubated overnight prior to treatments. For DNP-BSA treatments, overnight incubation also included 1 μg/mL IgE anti-DNP. Prior to stimulation, cells were washed and loaded with the fluorescent, calcium-sensitive dye fluo-4 AM using the Fluo-4 AM Direct™ Calcium Assay Kit and fluorescence was measured on a microplate reader. Calcium influx was triggered in all experiments using either 1 μM A23187 or 50 ng/mL DNP-BSA, as indicated. Bar graphs represent the means±SEM of the Δ in RFU's at 1 min post-A23187- or DNP-BSA-stimulation from 3 independent experiments (FIGS. 3B, 3D, 3F, 3H). Statistical analysis was performed using a one-way ANOVA with Dunnett's post-hoc test, *p<0.05, **p<0.01, ***p<0.001.
FIG. 9. A15 inhibits calcium influx in RBL-2H3 cells. Prior to stimulation, cells were washed and loaded with the fluorescent, calcium-sensitive dye fluo-4 AM using the Fluo-4 AM Direct™ Calcium Assay Kit. Cells were treated with 100 μM A15 (D, E, F), 0.25% ethanol only (vehicle) (A, B, C), 1 μM A23187 (G, H, I), and 100 μM A15 in combination with 1 μM A23187 (J, K, L) as indicated. Images were acquired at 30, 60, and 120 seconds, post-stimulation. Images are representative of several experiments.
RBL-2H3, BMMC, RAW 264.7, or Jurkat cells were plated in clear-bottom, black, 96-well plates (BioExpress, Kaysville, Utah) and incubated overnight with media only or media containing IgE anti-DNP. Cells were loaded with the calcium-sensitive dye fluo-4 AM using the Fluo-4 Direct™ Calcium Assay Kit (Thermo Fisher Scientific) according to the manufacturer's instructions by incubating at 37° C. for 30 min followed by 30 min at room temperature. Prior to stimulation, baseline fluorescent readings were measured from triplicate wells in 5 s intervals for 1 min using a Synergy HT microplate reader with 485/20 nm excitation and 528/20 nm emission filters. Cells were then treated with either 1 μM A23187 or 50 ng/mL DNP-BSA prepared in calcium- and magnesium-containing or calcium- and magnesium-free HBSS with 20 mM HEPES, and fluorescence was measured in 10 s intervals for 2 min. The final concentration of ethanol was 0.25% in these assays. The average baseline fluorescence of each well was subtracted from the stimulated fluorescent values to calculate the change (Δ) in RFU's and graphed as shown.
Cells loaded with fluo-4 were treated and observed with an Axioskop 2 microscope (Zeiss, Oberkochen, Germany) using a fluorescent illuminator HXP-120 light source and images were acquired at 30, 60, or 120 sec after stimulation with a AxioCam MRc5 camera (Zeiss) and AxioVision software (Zeiss).

Assay [2] is described as follows: TDI-induced ear swelling. In kind it is in vivo, mouse. From the text:
Several different model systems were utilized for these experiments. In one model, dorsal root ganglia were obtained from mice and the neurons cultured in vitro. The neurons were then stimulated in the presence/absence of A15 and YM8-85 and the calcium responses monitored by fluorescence microscopy. In the second model, the alkamides were applied to mouse skin in mineral oil. The reactions of these mice to heat, cold, and tactile stimulation was then compared with mice that had not received treatment with A15. In a third model, mice were sensitized to the chemical compound toluene-2,4-diisocyanate (TDI). TDI is an industrial chemical which causes hypersensitive skin lesions and itching in exposed humans and animals. The physiological response to TDI is complex involving type 2 T lymphocytes, cytokines, mast cells, and neurons. Alkamides were applied to sensitized animals and then ear swelling and bouts of scratching were monitored.
A15 and TDI induced hypersensitivity. Mice were sensitized to toluene-2,4-diisocyanate (TDI) via abdominal application. Subsequently, a hypersensitive response was induced in the ear by direct application of TDI and ear thickness measured as a sign of inflammation.

For orientation: inhibition means the percentage by which the read-out fell short of the control. In the case of `CCCCCCC/C=C/C=C/C(=O)NCC(C)C` [A15, (2E,4E)-N-Isobutyldodeca-2,4-dienamide], the calcium response entry in assay [1] (RBL-2H3 cells treated with IgE anti-DNP and DNP-BSA) was “blocked the calcium response”. In assay [1] (Rattus norvegicus, 1 min, A23187-treated RBL-2H3 cells, 100 μM, 1 min post-stimulation, read-out: inhibition of rise in intracellular calcium), the inhibition at 100 µM came out at 83.2%. Also, the “constitutive fluorescence in unstimulated cells, compared to vehicle” value in assay [1] (unstimulated RBL-2H3 cells, 100 μM, pixel intensity, n=5 fields) was “did not cause a significant change in the level of constitutive fluorescence”. Also, the “TDI ear swelling (ear thickness)” value in assay [2] (0.1%, first experiment (FIG. 13A)) is “significant inhibitory effect”; in assay [2] (0.1%, repeated experiment (FIG. 13B)) it was “neither A15 nor YM8-85 at 0.1% produced significant inhibition”; in assay [2] (1%, first experiment (FIG. 13A)) it was “significant responses were not seen”.
